The values below come from patent publication US6525059B1, “Substituted pyrazoles as p38 kinase inhibitors” (G. D. Searle & Company, priority 1998, dated 2003).

T1 sequence (Q16539 whole entry): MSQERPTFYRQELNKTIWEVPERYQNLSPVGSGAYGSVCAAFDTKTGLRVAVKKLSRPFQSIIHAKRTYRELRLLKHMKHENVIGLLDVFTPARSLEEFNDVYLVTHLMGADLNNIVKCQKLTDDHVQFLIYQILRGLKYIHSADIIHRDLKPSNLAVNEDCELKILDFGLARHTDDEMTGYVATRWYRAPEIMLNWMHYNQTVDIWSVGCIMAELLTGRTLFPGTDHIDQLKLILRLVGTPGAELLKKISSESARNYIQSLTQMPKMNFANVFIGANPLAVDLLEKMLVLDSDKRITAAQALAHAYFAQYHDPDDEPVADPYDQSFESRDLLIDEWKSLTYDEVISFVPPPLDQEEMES

The first assay addresses T1, human p38 kinase alpha (Homo sapiens, UniProt Q16539).
T1 construct: The coding region of the human p38a cDNA was obtained by PCR-amplification from RNA isolated from the human monocyte cell line THP.1; GST (N); made in house; host or cells: E. coli DH10B
The assay can be described thus: p38 kinase in vitro assay, phosphorylation of biotinylated PHAS-I with gamma 32P-ATP. In kind it is biochemical. The settings on record: @ 1.0 uM. As for the experimental part: The ability of compounds to inhibit human p38 kinase alpha was evaluated using two in vitro assay methods. In the first method activated human p38 kinase alpha phosphorylates a biotinylated substrate, PHAS-I (phosphorylated heat and acid stable protein-insulin inducible), in the presence of gamma ^32P-ATP (^32P-ATP). PHAS-I was biotinylated prior to the assay and provides a means of capturing the substrate which is phosphorylated during the assay. p38 Kinase was activated by MKK6. Compounds were tested in 10 fold serial dilutions over the range of 100 μM to 0.001 μM using 1% DMSO. Each concentration of inhibitor was tested in triplicate.
All reactions were carried out in 96 well polypropylene plates. Each reaction well contained 25 mM HEPES pH 7.5, 10 mM magnesium acetate and 50 μM unlabeled ATP. […] The reaction proceeded either for one hour or overnight at 30° C.
Following incubation, 20 μl of reaction mixture was transferred to a high capacity streptavidin coated filter plate (SAM-streptavidin-matrix, Promega) prewetted with phosphate buffered saline. […] Filter plates were air dried and 20 μl of scintillant was added. The plates were sealed and counted.
With `O=C(NCc1[nH]nc(-c2ccc(F)cc2)c1-c1ccncc1)[C@@H]1C[C@@H]1c1ccccc1` [Example B-0002], the “P38 alpha kinase % inhib @ conc.” value came to 71.1% @ 1.0 uM.

For the molecule `COC(=O)C(=O)NCc1[nH]nc(-c2ccc(F)cc2)c1-c1ccncc1` [Example B-0025], the “P38 alpha kinase % inhib @ conc.” value turned out to be 89.0% @ 1.0 uM.

Still in this assay, the particulars now being: @ 1.0 uM; read-out: P38 alpha kinase % inhib @ conc.
As for `COc1ccc(C(=O)NCc2[nH]nc(-c3ccc(F)cc3)c2-c2ccncc2)c(OC)c1` [Example B-0086], the inhibition at 1 µM was found to be 91%.

For the molecule `O=C(NCc1[nH]nc(-c2ccc(F)cc2)c1-c1ccncc1)c1cccnc1Cl` [Example B-0053], the inhibition at 1 µM was 95%.

As to `Cc1cc(C)c(S(=O)(=O)NCc2[nH]nc(-c3ccc(F)cc3)c2-c2ccncc2)c(C)c1` [Example B-0109], the inhibition at 1 µM was found to be 45%.

With `COc1ccc(NC(=O)NCc2[nH]nc(-c3ccc(F)cc3)c2-c2ccncc2)c(OC)c1` [Example B-0167], the inhibition at 1 µM came out at 40%.

As to `O=S(=O)(NCc1[nH]nc(-c2ccc(F)cc2)c1-c1ccncc1)c1ccc(Cl)cc1Cl` [Example B-0126], the inhibition at 1 µM was found to be 66%.

For `O=S(=O)(NCc1[nH]nc(-c2ccc(F)cc2)c1-c1ccncc1)c1ccc(Cl)c(Cl)c1` [Example B-0135], the inhibition at 1 µM was 78%.

For `O=C(NCc1[nH]nc(-c2ccc(F)cc2)c1-c1ccncc1)c1ccno1` [Example B-0054], the inhibition at 1 µM turned out to be 90%.

`O=C(OCc1ccccc1C(=O)NCc1[nH]nc(-c2ccc(F)cc2)c1-c1ccncc1)c1ccccc1` [Example B-0092]: the inhibition at 1 µM is 97%.

Consider `O=C(NCc1[nH]nc(-c2ccc(F)cc2)c1-c1ccncc1)c1cc(F)ccc1F` [Example B-0095], for which the inhibition at 1 µM came out at 98%.

Turning to `COc1cccc(OC)c1C(=O)NCc1[nH]nc(-c2ccc(F)cc2)c1-c1ccncc1` [Example B-0070], the inhibition at 1 µM came to 92%.

Turning to `Cc1cccc(C(=O)NCc2[nH]nc(-c3ccc(F)cc3)c2-c2ccncc2)c1` [Example B-0067], the inhibition at 1 µM came to 91%.

`CCOc1ccc2ccccc2c1C(=O)NCc1[nH]nc(-c2ccc(F)cc2)c1-c1ccncc1` [Example B-0059]: the inhibition at 1 µM worked out at 83%.

The assay is the same for the next values; noted with them: @ 10.0 uM; read-out: P38 alpha kinase % inhib @ conc.
`O=C(NCc1[nH]nc(-c2ccc(F)cc2)c1-c1ccncc1)Nc1ccc(F)cc1` [Example B-0174]: the inhibition at 10 µM was found to be 54%.

As for `CC(C)c1ccccc1NC(=O)NCc1[nH]nc(-c2ccc(F)cc2)c1-c1ccncc1` [Example B-0179], the inhibition at 10 µM came out at 27%.

With `CCCCN(CCCC)c1cccc2c(S(=O)(=O)NCc3[nH]nc(-c4ccc(F)cc4)c3-c3ccncc3)cccc12` [Example B-0139], the inhibition at 10 µM was 54%.

Consider `CC(=O)Nc1nc(C)c(S(=O)(=O)NCc2[nH]nc(-c3ccc(F)cc3)c2-c2ccncc2)s1` [Example B-0097], for which the inhibition at 10 µM was 72%.

As to `COc1cccc(NC(=O)NCc2[nH]nc(-c3ccc(F)cc3)c2-c2ccncc2)c1` [Example B-0160], the inhibition at 10 µM worked out at 59%.

Still in this assay, the particulars now being: activated human p38 kinase alpha, PHAS-I substrate, 50 μM unlabeled ATP; read-out: p38 kinase IC50.
Turning to `Cc1n[nH]c(-c2ccccc2O)c1-c1ccncc1` [Example A-16], the IC50 stood at 3800 nM.

Take `COc1cc(F)cc(-c2[nH]nc(C)c2-c2ccncc2)c1` [Example A-25, 4-{5-(3-Fluoro-5-methoxyphenyl)-3-methyl-3-methyl-1H-pyrazol-4-yl}pyridine]: the IC50 came out at 2600 nM.

Still in this assay, the particulars now being: p38α in vitro, PHAS-I assay procedure; read-out: p38^1 IC50.
Take `OCCNc1cc(-c2c[nH]nc2-c2ccc(F)cc2)ccn1` [Example A-280]: the 50% inhibitory concentration (IC50) stood at 134 nM.

As for `Fc1ccc(-c2n[nH]c(NCCN3CCOCC3)c2-c2ccncc2)cc1` [Example A-218, N-[5-(4-fluorophenyl)-4-(4-pyridinyl)-1H-pyrazol-3-yl]-4-morpholineethanamine], the IC50 turned out to be 44 nM.

With `OCCn1cc(-c2ccnc(NCc3ccc(F)cc3)c2)c(-c2ccc(F)cc2)n1` [Example A-283, 3 (or 5)-(4-fluorophenyl)-4-[2-[[(4-fluorophenyl)methyl]amino]-4-pyridinyl]-1H-pyrazole-1-ethanol], the half-maximal inhibitory concentration (IC50) was below 100 nM.

For `Fc1ccc(CNc2cc(-c3cn(CCN4CCOCC4)nc3-c3ccc(F)cc3)ccn2)cc1` [Example A-276, N-[(4-fluorophenyl)methyl]-4-[3(or 5)-(4-fluorophenyl)-1-[[2-(4-morpholinyl)ethyl]-1H-pyrazol-4-yl]-2-pyridinamine], the IC50 was 176 nM.

Still in this assay, the particulars now being: read-out: P38 alpha kinase IC50.
For the molecule `CCCS(=O)(=O)NC(Cc1ccccc1)c1[nH]nc(-c2ccc(F)cc2)c1-c1ccncc1` (stereo not drawn) [Example B-0715], the IC50 was determined as 3200 nM.

On to `CCNC(=O)N[C@H](C)c1[nH]nc(-c2ccc(F)cc2)c1-c1ccncc1` [Example B-0421], for which the IC50 was determined as 460 nM.

As for `CC(=O)NC(C)c1[nH]nc(-c2ccc(F)cc2)c1-c1ccncc1` (stereo not drawn) [Example B-0536], the IC50 is 460 nM.

On to `Cc1cccc(Cl)c1S(=O)(=O)NCc1[nH]nc(-c2ccc(F)cc2)c1-c1ccncc1` [Example B-0243], for which the IC50 amounted to 39 nM.

For `C[C@@H](NS(=O)(=O)c1cccc2c(N(C)C)cccc12)c1[nH]nc(-c2ccc(F)cc2)c1-c1ccncc1` [Example B-0444], the 50% inhibitory concentration (IC50) came out at 1010 nM.

For the molecule `NC(=O)NC(Cc1ccccc1)c1[nH]nc(-c2ccc(F)cc2)c1-c1ccncc1` (stereo not drawn) [Example B-0724], the IC50 was 60 nM.

`CC(NC(=O)c1cccc(C(F)(F)F)c1)c1[nH]nc(-c2ccc(F)cc2)c1-c1ccncc1` (stereo not drawn) [Example B-0672]: the half-maximal inhibitory concentration (IC50) was determined as 6590 nM.

Turning to `Cc1cc(C)c(C(=O)NCc2[nH]nc(-c3ccc(F)cc3)c2-c2ccncc2)c(C)c1` [Example B-0280], the half-maximal inhibitory concentration (IC50) was 860 nM.

Consider `CC(=O)OCC(=O)N[C@H](C)c1[nH]nc(-c2ccc(F)cc2)c1-c1ccncc1` [Example B-0353], for which the concentration for half-maximal inhibition (IC50) stood at 1370 nM.

With `O=C(NCc1[nH]nc(-c2ccc(F)cc2)c1-c1ccncc1)c1ccc(C(F)(F)F)cc1F` [Example B-0283], the half-inhibitory concentration (IC50) amounted to 6660 nM.

In the case of `NC(=O)NC(Cc1ccccc1)c1[nH]nc(-c2ccc(F)cc2)c1-c1ccncc1` (stereo not drawn) [Example B-0769], the 50% inhibitory concentration (IC50) is 12700 nM.

Consider `Cc1noc(C)c1S(=O)(=O)N[C@H](C)c1[nH]nc(-c2ccc(F)cc2)c1-c1ccncc1` [Example B-0476], for which the IC50 stood at 560 nM.

`C[C@@H](NC(=O)N[C@H](C)c1[nH]nc(-c2ccc(F)cc2)c1-c1ccncc1)c1ccccc1` [Example B-0417]: the IC50 is 910 nM.

Consider `CC(=O)N[C@H](C)c1[nH]nc(-c2ccc(F)cc2)c1-c1ccncc1` [Example B-0359], for which the half-maximal inhibitory concentration (IC50) was 450 nM.

As for `CCc1ccc(S(=O)(=O)N[C@H](C)c2[nH]nc(-c3ccc(F)cc3)c2-c2ccncc2)cc1` [Example B-0460], the IC50 was 61 nM.

`C[C@@H](NS(=O)(=O)c1cccs1)c1[nH]nc(-c2ccc(F)cc2)c1-c1ccncc1` [Example B-0398]: the IC50 worked out at 54 nM.

`CC(=O)Nc1nc(C)c(S(=O)(=O)N[C@H](C)c2[nH]nc(-c3ccc(F)cc3)c2-c2ccncc2)s1` [Example B-0430]: the IC50 stood at 290 nM.

On to `O=C(c1ccccc1Br)N1CCC(c2[nH]nc(-c3ccc(F)cc3)c2-c2ccncc2)CC1` [Example B-1398], for which the IC50 is 920 nM.

As to `C[C@@H](NC(=O)c1ccc(F)c(F)c1F)c1[nH]nc(-c2ccc(F)cc2)c1-c1ccncc1` [Example B-0369], the half-maximal inhibitory concentration (IC50) is 160 nM.

Take `COc1ccc(Cl)cc1S(=O)(=O)NCc1[nH]nc(-c2ccc(F)cc2)c1-c1ccncc1` [Example B-0253]: the IC50 amounted to 61 nM.

What is called IC50 is the point on the concentration scale where inhibition reaches its midpoint.
